From patent US20070178054A1, “ORAL ANTIMICROBIAL COMPOSITION” (priority 2005, published 2007)

Key:
Assay type in all cases: cell-based, Streptococcus mutans
[1] = test system: biofilm-embedded S. mutans; assay: Survival of biofilm-embedded S. mutans (CFU counts), CSP compositions, 12-well plates; settings: 20 h biofilm, combination of both
Procedure: (§1) Streptococcus mutans UA159 strain was used in these Examples. S. mutans strain UA159 was grown in Todd-Hewitt broth containing 0.3% yeast extract (THYE) at pH 7.0 and was subcultured routinely on THYE agar plates and incubated at 37° C. in an anaerobic chamber (5% CO2). In liquid media, cultures were incubated in closed screw-cap tubes without agitation at 37° C. in an anaerobic chamber (5% CO2)
(§2) Biofilms were developed in 12-well polystyrene microtiter plates to provide a rapid and simple method for assaying biofilm-embedded live oral bacteria (e.g. S. mutans). A 4× diluted THYE medium supplemented with final concentration of 0.01% hog gastric mucin (Sigma) was used as biofilm medium (BM). Fonnation of biofilms was initiated by inoculating 20 μl of S. mutans cell suspension (1.2×10^7 CFU/ml) into each well containing 2 ml of BM and four wells were set up: two for control and two for treatment with compositions comprising synthetic CSP and Nisin or chlorhexidine or xylitol or triclosan or citric acid or zinc citrate or sodium fluoride or oleanolic acid or lansoprazole or epigallocatechin gallate or chitosan. After cultures were incubated at 37° C. for 20 hours under an anaerobic condition, fluid media were removed. The wells were rinsed once with 10 mM PBS buffer (pH 7.2) and biofilm-embedded cells were collected in two ml PBS buffer, gently sonicated for 15 seconds, serially diluted, spread on THYE plates, and incubated at 37° C. under anaerobic conditions. Biofilm-embedded viable cells were quantified by colony forming unit (CFU) counts after 48 hours of incubation.

S. mutans UA159 [2] = assay: S. mutans growth in 96-well microtiter plate (OD 600 nm); settings: 24 h, E2 20 μg/ml, combination of both
Procedure: as §1
(§3) Wells without cells were used as blank controls.
(§4) The microtiter plates were then incubated at 37° C. in an anaerobic chamber (5% CO2) for 24 hours without agitation. After the incubation, the growth was measured at 600 nm with a microplate reader. The planktonic cells were carefully removed, and plates were air dried overnight. The plates were then stained with 0.4% crystal violet for 10 minutes, rinsed with sterile distilled water and air dried for 15 minutes. Biofilm was quantified by measuring the absorbance of stained biofilm at 630 nm with a microplate reader.

S. mutans UA159 [3] = assay: S. mutans biofilm formation, crystal violet staining (OD 630 nm); settings: 24 h, E2 20 μg/ml, combination of both
Procedure: as §1, §3, §4

[4] = test system: biofilm-embedded S. mutans; assay: Survival of biofilm-embedded S. mutans (CFU counts), E2 peptide compositions, 12-well plates; settings: 20 h biofilm, E2 20 μg/ml, combination of both
Procedure: as §1
as §2, with “developed on” for “developed in”, “mucin (Sigma, St. Louis, Mo.)” for “mucin (Sigma)”, “(BM). Formation” for “(BM). Fonnation”, “synthetic E2 peptide” for “synthetic CSP”, “or E2 and CHX.” for “or chlorhexidine or xylitol or triclosan or citric acid or zinc citrate or sodium fluoride or oleanolic acid or lansoprazole or epigallocatechin gallate or chitosan.”, “fluid medium was” for “fluid media were”

[5] = test system: biofilm-embedded S. mutans; assay: as above; settings: 20 h biofilm, E2 20 μg/ml, combination of both; remark: listed apart in the source
[6] = CSP 40 μg/ml, zinc citrate 1200 μg/ml, control 8 × 10^5
[7] = CSP 50 μg/ml, nisin 80 μg/ml, control 1.6 × 10^6
[8] = triclosan 25 μg/ml, control 0.33
[9] = triclosan 25 μg/ml, control 1.58
[10] = CSP 40 μg/ml, triclosan 500 μg/ml, control 6.8 × 10^5
[11] = citric acid 1.2 mg/ml, control 0.34
[12] = lansoprazole 0.1 mM, control 0.38
[13] = sodium fluoride 600 μg/ml, control 0.40
[14] = xylitol 15.2 mg/ml, control 0.37
[15] = citric acid 1200 μg/ml, control 1.7
[16] = lansoprazole 37 μg/ml, control 8
[17] = sodium fluoride 800 μg/ml, control 2.9
[18] = citric acid 1.2 mg/ml, control 1.23
[19] = lansoprazole 0.1 mM, control 1.32
[20] = sodium fluoride 600 μg/ml, control 0.93
[21] = xylitol 15.2 mg/ml, control 0.78
[22] = chlorhexidine 0.15 μg/ml, control 1.4
[23] = CSP 40 μg/ml, lansoprazole 37 μg/ml, control 1.2 × 10^6
[24] = CSP 40 μg/ml, citric acid 1200 μg/ml, control 3.4 × 10^5
[25] = CSP 40 μg/ml, chlorhexidine 0.15 μg/ml, control 1.4 × 10^6
[26] = CSP 40 μg/ml, oleanolic acid 250 μg/ml, control 4 × 10^5
[27] = CSP 40 μg/ml, sodium fluoride 250 μg/ml, control 2.6 × 10^5

O=C([O-])CC(O)(CC(=O)[O-])C(=O)[O-].O=C([O-])CC(O)(CC(=O)[O-])C(=O)[O-].[Zn+2].[Zn+2].[Zn+2] [Zinc citrate, zinc citrate]
CPU [1, 6]: 0.8 × 10^5 CFU

nisin
Growth (OD @ 600 nm) (S. mutans UA159 [2]; nisin 80 μg/ml, control 0.36): 0.23 OD | Biofilm (OD @ 630 nm) (S. mutans UA159 [3]; nisin 80 μg/ml, control 1.03): 0.6 OD | CPU [1, 7]: 1 × 10^6 CFU | CFU × 10^6 ([4]; nisin 80 μg/ml, control 2.8): 3.0 CFU × 10^6

Oc1cc(Cl)ccc1Oc1ccc(Cl)cc1Cl [Triclosan, triclosan, reference compound]
Growth (OD @ 600 nm) (S. mutans UA159 [2]; [8]): 0.33 OD | Biofilm (OD @ 630 nm) (S. mutans UA159 [3]; [9]): 1.69 OD | CPU [1, 10]: 7 × 10^2 CFU

SGSLSTFFRLFNASFTQALGK (Synthetic E2) [Peptide E2, second arginine from the C' terminus substituted with alanine]
Growth (OD @ 600 nm) (S. mutans UA159 [2]; CHX 0.154 μg/ml, control 0.39): 0.11 OD | Growth (OD @ 600 nm) (S. mutans UA159 [2]; EGCg 150 μg/ml, control 0.32): 0.22 OD | Growth (OD @ 600 nm) (S. mutans UA159 [2]; OA 2 μg/ml, control 0.4): 0.26 OD | Growth (OD @ 600 nm) (S. mutans UA159 [2]; chitosan 1 μg/ml, control 0.37): 0.28 OD | Growth (OD @ 600 nm) (S. mutans UA159 [2]; [11]): 0.26 OD | Growth (OD @ 600 nm) (S. mutans UA159 [2]; [12]): 0.2 OD | Growth (OD @ 600 nm) (S. mutans UA159 [2]; nisin 80 μg/ml, control 0.36): 0.11 OD | Growth (OD @ 600 nm) (S. mutans UA159 [2]; [13]): 0.23 OD | Growth (OD @ 600 nm) (S. mutans UA159 [2]; [8]): 0.12 OD | Growth (OD @ 600 nm) (S. mutans UA159 [2]; [14]): 0.12 OD | CFU × 10^6 ([5]; chitosan 1 μg/ml, control 1.4): 0.1 CFU × 10^6 | CFU × 10^6 [5, 15]: 0.6 CFU × 10^6 | CFU × 10^6 [5, 16]: 4.3 CFU × 10^6 | CFU × 10^6 [5, 17]: 1 CFU × 10^6 | Biofilm (OD @ 630 nm) (S. mutans UA159 [3]; CHX 0.154 μg/ml, control 0.88): 0.34 OD | Biofilm (OD @ 630 nm) (S. mutans UA159 [3]; EGCg 150 μg/ml, control 1.52): 0.92 OD | Biofilm (OD @ 630 nm) (S. mutans UA159 [3]; OA 2 μg/ml, control 0.8): 0.33 OD | Biofilm (OD @ 630 nm) (S. mutans UA159 [3]; chitosan 1 μg/ml, control 2.10): 1.18 OD | Biofilm (OD @ 630 nm) (S. mutans UA159 [3]; [18]): 0.54 OD | Biofilm (OD @ 630 nm) (S. mutans UA159 [3]; [19]): 0.4 OD | Biofilm (OD @ 630 nm) (S. mutans UA159 [3]; nisin 80 μg/ml, control 1.03): 0.24 OD | Biofilm (OD @ 630 nm) (S. mutans UA159 [3]; [20]): 0.16 OD | Biofilm (OD @ 630 nm) (S. mutans UA159 [3]; [9]): 1.00 OD | Biofilm (OD @ 630 nm) (S. mutans UA159 [3]; [21]): 0.34 OD | CFU × 10^6 [4, 22]: 0.9 CFU × 10^6 | CFU × 10^6 ([4]; nisin 80 μg/ml, control 2.8): 2.5 CFU × 10^6

Cc1c(OCC(F)(F)F)ccnc1C[S+]([O-])c1nc2ccccc2[nH]1 (stereo not drawn) [Lansoprazole, lansoprazole, reference compound]
Growth (OD @ 600 nm) (S. mutans UA159 [2]; [12]): 0.4 OD | CFU × 10^6 [5, 16]: 6.2 CFU × 10^6 | Biofilm (OD @ 630 nm) (S. mutans UA159 [3]; [19]): 1.35 OD | CPU [1, 23]: 1 × 10^6 CFU

O=C(O)CC(O)(CC(=O)O)C(=O)O [Citric acid, citric acid]
Growth (OD @ 600 nm) (S. mutans UA159 [2]; [11]): 0.02 OD | CFU × 10^6 [5, 15]: 0.05 CFU × 10^6 | Biofilm (OD @ 630 nm) (S. mutans UA159 [3]; [18]): 0.38 OD | CPU [1, 24]: 8 × 10^4 CFU

SGSLSTFFRLFNRSFTQALGK (Streptococcus mutans) [CSP]
CPU ([1]; CSP 40 μg/ml, chitosan 0.25 μg/ml, control 7.6 × 10^5): 2.2 × 10^5 CFU | CPU [1, 25]: 0.1 × 10^6 CFU | CPU [1, 24]: 2 × 10^4 CFU | CPU [1, 23]: 1.4 × 10^6 CFU | CPU [1, 26]: 2 × 10^4 CFU | CPU [1, 27]: 1.7 × 10^5 CFU | CPU [1, 10]: 7 × 10^4 CFU | CPU [1, 6]: 0.5 × 10^5 CFU | CPU [1, 7]: 1 × 10^6 CFU

O=C(O[C@@H]1Cc2c(O)cc(O)cc2O[C@@H]1c1cc(O)c(O)c(O)c1)c1cc(O)c(O)c(O)c1 [EGCg, Epigallocatechin gallate]
Growth (OD @ 600 nm) (S. mutans UA159 [2]; EGCg 150 μg/ml, control 0.32): 0.08 OD | Biofilm (OD @ 630 nm) (S. mutans UA159 [3]; EGCg 150 μg/ml, control 1.52): 0.41 OD

CC1(C)CC[C@]2(C(=O)O)CC[C@]3(C)C(=CC[C@@H]4[C@@]5(C)CC[C@H](O)C(C)(C)[C@@H]5CC[C@]43C)[C@@H]2C1 [OA, Oleanolic acid]
Growth (OD @ 600 nm) (S. mutans UA159 [2]; OA 2 μg/ml, control 0.4): 0.32 OD | Biofilm (OD @ 630 nm) (S. mutans UA159 [3]; OA 2 μg/ml, control 0.8): 0.94 OD | CPU [1, 26]: 1.7 × 10^5 CFU

OC[C@@H](O)[C@H](O)[C@@H](O)CO [Xylitol, xylitol]
Growth (OD @ 600 nm) (S. mutans UA159 [2]; [14]): 0.07 OD | Biofilm (OD @ 630 nm) (S. mutans UA159 [3]; [21]): 0.32 OD

[H]/N=C(\N/C(=N/[H])NCCCCCCNC(=N)NC(=N)Nc1ccc(Cl)cc1)Nc1ccc(Cl)cc1 [CHX, Chlorhexidine, reference compound]
Growth (OD @ 600 nm) (S. mutans UA159 [2]; CHX 0.154 μg/ml, control 0.39): 0.39 OD | Biofilm (OD @ 630 nm) (S. mutans UA159 [3]; CHX 0.154 μg/ml, control 0.88): 1.00 OD | CPU [1, 25]: 2 × 10^6 CFU | CFU × 10^6 [4, 22]: 1.9 CFU × 10^6

[F-].[Na+] [Sodium fluoride, sodium fluoride, reference compound]
Growth (OD @ 600 nm) (S. mutans UA159 [2]; [13]): 0.02 OD | CFU × 10^6 [5, 17]: 2.7 CFU × 10^6 | Biofilm (OD @ 630 nm) (S. mutans UA159 [3]; [20]): 0.12 OD | CPU [1, 27]: 7 × 10^5 CFU
